Molecular target: T1, recombinant HIV reverse transcriptase (HIV RTR) (Human immunodeficiency virus type 1 group M subtype B, UniProt P04585)
T1 construct: recombinant HIV reverse transcriptase (HIV RTR)
Assay: Reverse Transcriptase Assay
Format: biochemical
Procedure: The assay measures the incorporation of tritiated deoxyguanosine monophosphate by recombinant HIV reverse transcriptase (HIV RTR) (or other RT) into acid-precipitable cDNA at the Km values of dGTP and poly r(C).oligo d(G)12-18.
Thirty uL of a reaction mixture containing equal volumes of: 500 mM Tris.HCl (pH 8.2), 300 mM MgCl2, 1200 mM KCl, 10 mM DTT, 400 μg/mL poly r(c).oligo d(G) [prepared by dissolving 1.5 mg (25 U) poly r(C).oligo d(G) in 1.5 ml sterile distilled H2 O and diluting to 400 μg/ml], 0.1 μuCi/μl [^3 H] dGTP, 160 μM dGTP, was added to 10 μl sterile distilled H2 O, 2.5 μl of potential inhibitor. Ten μL of 3.2 nM purified HIV RTR in tubes. The mixture was incubated at 37° C. for 45 minutes.
After incubation was complete, the tubes were cooled in ice for 5 minutes. Ice-cold 13% TCA containing 10 mM NaPPi (200 μl) was added and the mixture incubated on ice for 30 minutes. The precipitated cDNA was removed by filtration using presoaked glass filters [TCA, NaPPi ]. The precipitate was then washed with 1N HCl, 10 mM NaPPi. The filter discs were then counted in a scintillation counter.
Under these conditions [dGTP] and poly r(C).oligo d(G)12-18 each are approximately equal to the appropriate Km value. Approximately 5-6,000 cpm of [^3 H] GMP are incorporated into acid-precipitable material. The RT reaction is concentration-and time-dependent.

In the case of `Cc1[nH]c(=O)c(NCc2nc3c(C)ccc(C)c3o2)cc1C(C)O` (stereo not shown) [compound (I), 3-[(4,7-Dimethylbenzoxazol-2-yl)-methylamino]-5-(1-hydroxyethyl)-6-methyl-2(1H)-pyridinone], the IC50 is reported as ~430 nM.
